Data set [1] deals with collagenase. In words: Collagenase inhibitory assay. The data set is classed as biochemical. The note with it: for Collagenase Inhibition (%): inhibition percentage 'at an IC50', concentration not otherwise stated; for IC50: read-out: Anti-Collagenase IC50. The procedure: A fixed weight of 1 mg of azo dye-impregnated collagen was measured in the test tubes. Subsequently, 800 μL of 0.1 M Tris-HCl (pH 7) and 100 μL of the samples at the same concentrations used as in the viability assay were added to each test tube. Next, 100 μL of collagenase (200 units/mL) was immediately mixed into the mixture and the tubes were incubated at 43 °C for 1 h. After incubation, the test tubes were centrifuged at 3000 rpm for 10 min. The supernatant from each tube was transferred into 96-well plates and the absorbance of each supernatant was measured at 550 nm using a microplate reader.

For data set [2], the system named is THP-1 cell line. In words: NR viability assay, THP-1. It is filed as cell-based, Homo sapiens. The following applies: 72 h. The protocol: (§1) The HEK001 (Homo sapiens cutaneous keratinocyte, CCL-2404), WS1 (Homo sapiens cutaneous fibroblast, CRL-1502), HMCB (Homo sapiens cutaneous melanoma, CRL-9607), and THP-1 (Homo sapiens peripheral blood monocyte, TIB-202) cell lines used in this study were obtained from the American Type Culture Collection (ATCC, Manassas, VA, USA). Cultivated in a Roswell Park Memorial Institute (RPMI) 1640 medium (RPMI 1640 Merck, Cat. No. R7755, New York, NY, USA) supplemented with 2 mM L-glutamine (≥99% Merck, Cat. No. 56-85-9), 10% fetal bovine serum (FBS Merck, Cat. No. TMS-016, St. Louis, MO, USA), and 10,000 units of penicillin and 10 mg streptomycin/mL (Merck, Cat. No. P4333, St. Louis, MO, USA) in culture flasks, the cells were maintained in an incubator under normoxic conditions (20–21% O2) and a humidified atmosphere (5% CO2 at 37 °C).
(§2) Mother solutions of samples (extracts, fractions, and compounds) were prepared at a concentration of […] using dimethyl sulfoxide (DMSO ≥ 99.9% Merck, Cat. No. 67-68-5, St. Louis, MO, USA) as the solvent. From these mother solutions, dilutions were prepared at concentrations ranging from 100 to 0.20 μg/mL or μM in culture medium containing 0.5% DMSO. Additionally, a negative control group consisting solely of culture medium with 0.5% DMSO was included to assess its potential cytotoxic effect on the cells.
(§3) Cell viability was evaluated using a colorimetric assay in 96-well plates, employing 3-amino-7-dimethylamino-2-methylphenazine hydrochloride salt reagent (NR, Merck, Cat. No. 553-24-2, St. Louis, MO, USA).
(§4) HEK001, WS1, HMCB, and THP-1 cell lines were cultured in 96-well plates at 37 °C with 5% CO2 until > 90% confluency was achieved (1 × 10^6 cells/well). Subsequently, the cultures were treated with sample dilutions (100–0.20 μg/mL or μM) for 72 h at 37 °C with 5% CO2 in phenol red-free RPMI. The supernatant was then discarded and the cells were washed with phosphate-buffered saline (PBS) before being incubated with […] NR (50 μg/mL; 173 μM) for 3 h at 37 °C with 5% CO2. NR labelling was performed after DMSO treatment. After incubation, the labelled sample dilutions were rapidly washed with a fixative solution composed of 1% calcium chloride (CaCl2 Merck, Cat. No. 10043-52-4, St. Louis, MO, USA) and 0.5% formaldehyde solution (≥36.0% in H2O Merck, Cat. No. 50-00-0, St. Louis, MO, USA), then diluted with 100 μL of the NR extraction solution. Finally, the plates were read at 540 nm using a microplate reader (Anthos 2020, version 2.0.5, Biochrom Ltd., Cambridge, UK).

Data set [3] has as its system HMCB cell line. As to the kind of experiment: NR viability assay, HMCB. The data set is classed as cell-based, Homo sapiens. The following applies: HMCB, NR assay, 72 h. The procedure: as §1, §2, §3, §4
In data set [4] the test system is WS1 cell line. In words: NR viability assay, WS1. The data set is classed as cell-based, Homo sapiens. The following applies: WS1, NR assay, 72 h. The protocol: as §1, §2, §3, §4
In data set [5] the test system is HEK001 cell line. In words: NR viability assay, HEK001. The data set is classed as cell-based, Homo sapiens. The note with it: HEK001, NR assay, 72 h. The procedure: as §1, §2, §3, §4

Where two headings read alike, the source gives them in different places.

Take `CNC(=O)c1ccccc1NC(=O)/C=C/c1ccc(OC)c(OC)c1` [Compound 1, (E)-2-(3-(3,4-dimethoxyphenyl)acrylamido)-N-methylbenzamide]: in data set [1], the “Collagenase Inhibition (%)” value is recorded as 62.24 ± 1.42% and the IC50 is 76.6 ± 1.31 µM.
With `O=C(O)c1cc(O)c2ccccc2n1` [Compound 2, 4-hydroxyquinoline-2-carboxylic acid], the CC50 in data set [2] (human) is above 100 µM. In data set [1], the “Collagenase Inhibition (%)” value is recorded as 24.87 ± 1.34% and the IC50 was 152 ± 3.73 µM.
With `N#C/C(=C\c1ccc(O)cc1)C(=O)O` [Compound 3, (E)-2-cyano-3-(4-hydroxyphenyl)acrylic acid], the 50% cytotoxic concentration (CC50) in data set [3] was 98.6 µM; in data set [2] (THP-1, NR assay, read-out: Viability CC50), above 100 µM; in data set [4] it was above 100 µM; in data set [5], above 100 µM. Also, the “Collagenase Inhibition (%)” value in data set [1] was 7.73 ± 1.21%. For the same compound, the half-inhibitory concentration (IC50) in data set [1] came out at 187 ± 2.61 µM.

For the origin of these results see publication PMC11280343, “Rubus urticifolius Compounds with Antioxidant Activity, and Inhibition Potential against Tyrosinase, Melanin, Hyaluronidase, Elastase, and Collagenase” (Pharmaceuticals, 2024).
